Patent US10654872B1, “Polymorphs of dolutegravir and salts thereof” (Laurus Labs Limited, priority 2015, dated 2020)

Key:
Format in all cases: physicochemical
[1] = Stability data of dolutegravir sodium Form-L9 stored at 40±2° C./75±5% RH
Description: Dolutegravir sodium Form-L9 was packed in a Low density polyethylene (LDPE) bag with a strip seal, which is again kept in a second low density polyethylene bag with strip seal. The LDPE bag is kept in a high density polyethylene (HDPE) container and well closed and loaded for stability chamber. […] The purity of dolutegravir sodium was analysed using high performance liquid chromatography (“HPLC”) with the conditions is tabulated below: [table]

[2] = Thermal stability of Form-L9 in oven at 60° C. and 100° C. (PXRD, DSC); settings: for Form after heating, DSC / Form after heating, PXRD: 24 hrs
Description: Dolutegravir sodium Form-L9 was kept in an oven at 60° C. and 100° C. for 24 hrs.

[3] = Hygroscopic study at 85% relative humidity; settings: room temperature, one week (24, 48, 72, 168 hours)
Description: Dolutegravir sodium Form-L9 was exposed to 85% relative humidity at room temperature for one week and was analyzed by PXRD at different time intervals such as 24 hours, 48 hours, 72 hours and 168 hours. […] The overlaid PXRD pattern of dolutegravir sodium Form-L9 subjected to hygroscopic study at 85% RH is represented as Figure-25.

[4] = Aqueous solubility at different pH buffers, UV quantification

Compound: C[C@@H]1CCO[C@H]2Cn3cc(C(=O)NCc4ccc(F)cc4F)c(=O)c(O)c3C(=O)N12 [Form-L9, dolutegravir sodium]
- Des fluoro dolutegravir ([1]; 1 month): 0.08 % w/w
- PXRD (polymorphic form) ([1]; 1 month): Form-L9
- Purity by HPLC ([1]; 1 month): 99.9 % w/w
- Water content ([1]; 1 month): 1.9 % w/w
- Des fluoro dolutegravir ([1]; 2 month): 0.09 % w/w
- PXRD (polymorphic form) ([1]; 2 month): Form-L9
- Purity by HPLC ([1]; 2 month): 99.9 % w/w
- Water content ([1]; 2 month): 2 % w/w
- Des fluoro dolutegravir ([1]; 3 month): 0.10 % w/w
- PXRD (polymorphic form) ([1]; 3 month): Form-L9
- Purity by HPLC ([1]; 3 month): 99.8 % w/w
- Water content ([1]; 3 month): 2.3 % w/w
- Des fluoro dolutegravir ([1]; Initial): 0.09 % w/w
- PXRD (polymorphic form) ([1]; Initial): Form-L9
- Purity by HPLC ([1]; Initial): 99.8 % w/w
- Water content ([1]; Initial): 2.2 % w/w
- Polymorphic and chemical stability on storage ([1]; at least up to three months, LDPE bags in HDPE container): retained the same polymorphic and chemical identity
- Stability at elevated temperatures ([2]; 60° C. and 100° C. for 24 hours): stable even at elevated temperatures
- Form after heating, DSC ([2]; 60° C.): Form-L9
- Form after heating, PXRD ([2]; 60° C.): Form-L9
- Form after heating, DSC ([2]; 100° C.): Form-L9
- Form after heating, PXRD ([2]; 100° C.): Form-L9
- Polymorphic nature after thermal study (PXRD and DSC) ([2]; oven at 60° C. and 100° C. for 24 hrs): same polymorphic nature retained
- Polymorphic nature after hygroscopic study [3]: same polymorphic nature retained
- Solubility profile versus dolutegravir sodium anhydrous form [4]: comparable
